The source of these data is patent US10640545B2 (THE GOVERNORS OF THE UNIVERSITY OF ALBERTA, priority 2017, dated 2020).

Where a SMILES comes first, the peptide text is derived from it. [ ]: non-standard residue; d: D form. Phe(4-Br) = N[C@@H](Cc1ccc(Br)cc1)C(=O)O; NMeL = CN[C@@H](CC(C)C)C(=O)O; Nle = CCCC[C@H](N)C(=O)O; Aib = CC(C)(N)C(=O)O

The target in data set [1] is Human plasma kallikrein KLKB1 (Homo sapiens, UniProt P03952). Put plainly: Plasma kallikrein KLKB1 qualitative cleavage assay (MALDI-TOF). The note with it: KLKB1, 37° C., first degradation products by MALDI-TOF.
For the next data set, the target named is KLKB1 (Homo sapiens, UniProt P03952). Kind of data set: In vitro KLKB1 stability (half-life). It is filed as in vitro ADME. Details: purchased Novoprotein. Conditions: rhKLKB1, 37° C.
Data set [2] addresses T1, KLKB1 (plasma kallikrein) (Homo sapiens, UniProt P03952).
T1 construct: purchased Novoprotein
Put plainly: In vitro KLKB1 stability (half-life). It is filed as in vitro ADME. The note with it: human.

The test system of the next data set is anesthetized mice. Kind of data set: Blood pressure assay in anesthetized mice. The data set is classed as in vivo. The note with it: 1.4 μM/kg body weight injected, SBP, DBP, MABP. Put shortly: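 Mice were anaesthetized with 1.5% isoflurane/oxygen and kept at 36 °C. Peptide (1.4 μM/kg body weight) or saline was injected via the right jugular vein. Arterial pressure and heart rate were recorded continuously through a catheter in the aorta via the right carotid artery over 60 min and reported as SBP, DBP, MABP and HR.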

For a further data set, the system named is isolated rat hearts. Kind of data set: Langendorff isolated heart, ischemia-reperfusion injury. Conditions: ex vivo heart, 30 min ischemia. As to the method: The ex vivo heart was assessed for a variety of parameters (heart rate (HR); left ventricle developed pressure (LVDP); maximum derivative of change in systolic pressure over time (max dP/dt); minimum derivative of change in diastolic pressure over time (min dP/dt); and rate-pressure product (RPP)) indicative of general heart function and performance (FIG. 11).
Langendorff heart perfusion and ischemia-reperfusion injury were prepared and cardiac function was measured. Mice were heparinized and anaesthetized with 1.5-2% isoflurane inhalation. The heart was excised, mounted on a Langendorff system, and perfused at a consistent pressure of 80 mmHg with modified Krebs-Henseleit solution (116 mM NaCl, 3.2 mM KCl, 2.0 mM CaCl2), 1.2 mM MgSO4, 25 mM NaHCO3, 1.2 mM KH2PO4, 11 mM glucose, 0.5 mM EDTA and 2 mM pyruvate), which was kept at 37° C. and continuously oxygenated with 95% O2 and 5% CO2 which maintained the perfusion buffer at pH 7.4. After stabilization and 10 min baseline recording, global ischemia was induced for 30 min followed by 40 min of reperfusion. Apelin 17 (2) or apelin peptides (11, 17, 18, or 19) were given at the start of reperfusion for 10 min at a concentration of 1 pM. Left ventricular functions were obtained continuously by PowerLab system (ADInstruments, Australia). Data was reported as mean value of every 5 min. Left ventricular functions were reported as: Left Ventricular Developed Pressure (LVDP); Heart rate (HR); maximum derivative of change in systolic pressure over time (max dP/dt); minimum derivative of change in diastolic pressure over time (min dP/dt); and Rate Pressure Product (RPP).

A further data set can be described thus: in vitro. The note with it: human, plasma.

KLKB1, sequence (P03952 20-638): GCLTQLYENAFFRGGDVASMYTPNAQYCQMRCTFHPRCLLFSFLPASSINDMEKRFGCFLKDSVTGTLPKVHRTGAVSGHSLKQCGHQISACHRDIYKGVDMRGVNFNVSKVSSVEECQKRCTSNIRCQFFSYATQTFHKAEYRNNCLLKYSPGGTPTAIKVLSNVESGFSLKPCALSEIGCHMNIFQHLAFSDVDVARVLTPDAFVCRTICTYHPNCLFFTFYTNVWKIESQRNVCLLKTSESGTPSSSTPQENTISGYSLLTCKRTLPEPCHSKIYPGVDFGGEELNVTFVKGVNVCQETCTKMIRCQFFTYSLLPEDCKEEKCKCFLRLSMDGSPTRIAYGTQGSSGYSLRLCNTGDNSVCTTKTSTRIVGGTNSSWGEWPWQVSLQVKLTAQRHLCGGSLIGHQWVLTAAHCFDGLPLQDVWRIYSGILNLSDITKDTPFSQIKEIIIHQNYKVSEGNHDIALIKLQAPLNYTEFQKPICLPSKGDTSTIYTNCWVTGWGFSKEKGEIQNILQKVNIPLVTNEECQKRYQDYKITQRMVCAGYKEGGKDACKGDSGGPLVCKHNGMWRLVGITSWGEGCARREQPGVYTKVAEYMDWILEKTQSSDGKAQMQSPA
T1 sequence (P03952 20-638): as above
Human plasma kallikrein KLKB1, sequence (P03952 20-638): as above

For the molecule `CSCC[C@H](NC(=O)[C@@H]1CCCN1C(=O)CNC(=O)[C@H](CCCCN)NC(=O)[C@H](Cc1cnc[nH]1)NC(=O)[C@H](CO)NC(=O)[C@H](CC(C)C)NC(=O)[C@H](CCCNC(=N)N)NC(=O)[C@@H]1CCCN1C(=O)[C@H](CCCNC(=N)N)NC(=O)[C@H](CCC(N)=O)NC(=O)[C@H](CCCNC(=N)N)NC(=O)[C@H](CCCNC(=N)N)NC(=O)[C@H](Cc1ccccc1)NC(=O)[C@@H](N)CCCCN)C(=O)N1CCC[C@H]1C(=O)N[C@@H](Cc1ccccc1)C(=O)O` [Peptide 2, reference compound], in data set [1], the “Degradation Onset Timepoint with KLKB1” value is recorded as less than 30 min. Further, at KLKB1, the “t1/2 (rhKLKB1, h)” value turned out to be 0.4 h.

With `CCCC[C@H](NC(=O)[C@@H]1CCCN1C(=O)CNC(=O)[C@H](CCCCN)NC(=O)[C@H](Cc1c[nH]cn1)NC(=O)[C@H](CO)NC(=O)[C@H](CC(C)C)N(C)C(=O)[C@H](CCCNC(=N)N)NC(=O)[C@@H]1CCCN1C(=O)[C@H](CCCNC(=N)N)NC(=O)[C@H](CCC(N)=O)NC(=O)[C@H](CCCNC(=N)N)NC(=O)[C@H](CCCNC(=N)N)NC(=O)[C@H](Cc1ccccc1)NC(=O)[C@@H](N)CCCCN)C(=O)NC(C)(C)C(=O)N[C@@H](Cc1ccc(Br)cc1)C(=O)O` [Peptide 11] (H-KFRRQRPR[NMeL]SHKGP[Nle][Aib][Phe(4-Br)]-OH; C-terminus assumed), the half-life (as a rule, how long it takes for the measured level to halve) in data set [2] is 54 min. For the same molecule, the “blood pressure lowering (hypotensive) effect” value with anesthetized mice is reported as “potent hypotensive activity that rivaled or bested that of native 2 or A2 variant 5”. In addition, the “ability to rescue the heart from ischemic reperfusion injury” value in the data set on isolated rat hearts (peptide at start of reperfusion for 10 min at 1 pM) is on record as “equivalent ability to rescue the heart from ischemic reperfusion injury compared to native isoform 2”. In the data set with isolated rat hearts (reperfusion), the “max/min dP/dt, LVDP and RPP compared to native isoform 2” value was “slight improvement over the native isoform”. Moreover, in the data set “in vitro”, the amount remaining (in general, the share of the starting amount still present when the sample was taken) at 0.5 h, 80 µM came to 49 ± 10% and the amount remaining at 1 h, 80 µM was 47 ± 7%.
